According to patent publication US20180162862A1 (President and Fellows of Harvard College, priority 2015, published 2018):
≈ marks a conversion by molar mass, not a printed value. Like-named read-outs stand apart in the source and are kept apart here.

Columns and labels:
S. aureus ATCC 29213 = assay: MIC test according to CLSI M7-A9, S. aureus ATCC 29213; type: cell-based; details: Staphylococcus aureus, read-out: S. aureus ATCC 29213 MIC at 24 h
Method: (§1) MIC Test (S. aureus ATCC 29213, S. aureus ATCC 43300 and S. aureus Newman)
(§2) Susceptibility testing of S. aureus ATCC 29213, ATCC 43300 and Newman was performed according to Clinical Laboratory Standard Institute (CLSI) guidelines M7-A9. Test articles were stored at room temperature prior to use, then dissolved in filtered sterile DMSO. Stock DMSO solutions were diluted further in cation-adjusted Mueller Hinton broth (CAMHB) to provide appropriate test concentrations. Cultures of S. aureus (ATCC 29213, ATCC 43300 or Newman) were added in accordance with CLSI guidelines and plates incubated at 37° C. in air for 24 h. Endpoints were determined visually (and by spectrophotometer at 600 nm) and the minimum inhibitory concentration (MIC) defined as the lowest concentration of test articles resulting in complete inhibition of visible bacterial growth. Results are detailed in Table 2 (S. aureus ATCC 29213 and ATCC 43300) and Table 3 (S. aureus ATCC 29213, ATCC 43300 and Newman).

S. aureus ATCC 43300 = assay: MIC test according to CLSI M7-A9, S. aureus ATCC 43300; type: cell-based; details: Staphylococcus aureus, read-out: S. aureus ATCC 43300 MIC at 24 h
Method: as §1, §2

[1] = ATCC29213, CLSI M7-A9, CAMHB, 24 h (Table 2)
[2] = ATCC43300, CLSI M7-A9, CAMHB, 24 h (Table 2)

MIC (S. aureus ATCC 29213; [1]) | MIC (S. aureus ATCC 43300; [2]) | Structure (SMILES) | MIC (S. aureus ATCC 29213; ATCC29213, 24 h) | MIC (S. aureus ATCC 43300; ATCC43300, 24 h)
4 mg/L (≈ 8.15 µM) | 4 mg/L (≈ 8.15 µM) | Cc1cc(NC2CCN(c3nc(-c4ccc(C(C)(C)C)cc4)nc4cc(=O)[nH]n34)CC2)ccc1Cl [Example 54, 2-(4-tert-butylphenyl)-4-{4-[(4-chloro-3-methylphenyl)amino]piperidin-1-yl}-6H,7H-pyrazolo[1,5-a][1,3,5]triazin-7-one] |  | 
64 mg/L (≈ 130 µM) | 64 mg/L (≈ 130 µM) | Cc1ccc(S(=O)(=O)CCCNc2nc(-c3ccc(C(C)(C)C)cc3)nc3cc(=O)[nH]n23)cc1C [Example 58, 2-(4-tert-butylphenyl)-4-{[3-(3,4-dimethylbenzenesulfonyl)propyl]amino}-6H,7H-pyrazolo[1,5-a][1,3,5]triazin-7-one] |  | 
16 mg/L (≈ 34 µM) | 8 mg/L (≈ 17 µM) | CC(C)(C)c1ccc(-c2nc(NC3CCC(NCc4ccccc4)CC3)n3[nH]c(=O)cc3n2)cc1 (centres unmarked) [Example 56, 4-{[4-(benzylamino)cyclohexyl]amino}-2-(4-tert-butylphenyl)-6H,7H-pyrazolo[1,5-a][1,3,5]triazin-7-one] |  | 
32 mg/L (≈ 68 µM) | 128 mg/L (≈ 272 µM) | CC(C)(C)c1ccc(-c2nc(NC3CCN(C(=O)c4ccccc4)CC3)n3[nH]c(=O)cc3n2)cc1 [Example 63, 4-[(1-benzoylpiperidin-4-yl)amino]-2-(4-tert-butylphenyl)-6H,7H-pyrazolo[1,5-a][1,3,5]triazin-7-one] |  | 
8 mg/L (≈ 21.9 µM) | 8 mg/L (≈ 21.9 µM) | CC(C)(C)c1ccc(-c2nc(NC3CCCCC3)n3[nH]c(=O)cc3n2)cc1 [Example 36, 2-(4-tert-butylphenyl)-4-(cyclohexylamino)-6H,7H-pyrazolo[1,5-a][1,3,5]triazin-7-one] |  | 
32 mg/L (≈ 73 µM) | 32 mg/L (≈ 73 µM) | CC(C)(C)c1ccc(-c2nc(NCC(O)CNC3CCCCC3)n3[nH]c(=O)cc3n2)cc1 (centres unmarked) [Example 61, 2-(4-tert-butylphenyl)-4-{[3-(cyclohexylamino)-2-hydroxypropyl]amino}-6H,7H-pyrazolo[1,5-a][1,3,5]triazin-7-one] |  | 
4 mg/L (≈ 8.15 µM) | 16 mg/L (≈ 32.6 µM) | Cc1cc(N2CCC(Nc3nc(-c4ccc(C(C)(C)C)cc4)nc4cc(=O)[nH]n34)CC2)ccc1Cl [Example 62, 2-(4-tert-butylphenyl)-4-{[1-(4-chloro-3-methylphenyl)piperidin-4-yl]amino}-6H,7H-pyrazolo[1,5-a][1,3,5]triazin-7-one] |  | 
32 mg/L (≈ 69.5 µM) | 32 mg/L (≈ 69.5 µM) | Cc1ncc(CN2CCC(Nc3nc(-c4ccc(C(C)(C)C)cc4)nc4cc(=O)[nH]n34)CC2)[nH]1 [Example 55, 2-(4-tert-butylphenyl)-4-({1-[(2-methyl-1H-imidazol-5-yl)methyl]piperidin-4-yl}amino)-6H,7H-pyrazolo[1,5-a][1,3,5]triazin-7-one] |  | 
 |  | CC(C)(C)c1ccc(-c2nc(NCCCn3ccnc3)n3[nH]c(=O)cc3n2)cc1 [Example 24, 2-(4-tert-butylphenyl)-4-{[3-(1H-imidazol-1-yl)propyl]amino}-6H,7H-pyrazolo[1,5-a][1,3,5]triazin-7-one] | 64 mg/L (≈ 163 µM) | 64 mg/L (≈ 163 µM)
8 mg/L (≈ 17.5 µM) | 8 mg/L (≈ 17.5 µM) | CC(C)(C)c1ccc(-c2nc(NCCCNC3Cc4ccccc4C3)n3[nH]c(=O)cc3n2)cc1 [Example 42, 2-(4-tert-butylphenyl)-4-({3-[(2,3-dihydro-1H-inden-2-yl)amino]propyl}amino)-6H,7H-pyrazolo[1,5-a][1,3,5]triazin-7-one] |  | 
32 mg/L (≈ 90 µM) | 32 mg/L (≈ 90 µM) | CC(C)(O)CNc1nc(-c2ccc(C(C)(C)C)cc2)nc2cc(=O)[nH]n12 [Example 26, 2-(4-tert-butylphenyl)-4-[(2-hydroxy-2-methylpropyl)amino]-6H,7H-pyrazolo[1,5-a][1,3,5]triazin-7-one] |  | 
4 mg/L (≈ 8.3 µM) | 8 mg/L (≈ 16.6 µM) | Cc1cc(OCC(O)CNc2nc(-c3ccc(C(C)(C)C)cc3)nc3cc(=O)[nH]n23)ccc1Cl (centres unmarked) [Example 60, 2-(4-tert-butylphenyl)-4-{[3-(4-chloro-3-methylphenoxy)-2-hydroxypropyl]amino}-6H,7H-pyrazolo[1,5-a][1,3,5]triazin-7-one] |  | 
64 mg/L (≈ 174 µM) | 128 mg/L (≈ 348 µM) | CC(C)(C)c1ccc(-c2nc(N3CCC(O)CC3)n3[nH]c(=O)cc3n2)cc1 [Example 20, 2-(4-tert-butylphenyl)-4-(4-hydroxypiperidin-1-yl)-6H,7H-pyrazolo[1,5-a][1,3,5]triazin-7-one] |  | 
8 mg/L (≈ 17.5 µM) | 8 mg/L (≈ 17.5 µM) | CC(C)(C)c1ccc(-c2nc(NC3CCN(Cc4ccccc4)CC3)n3[nH]c(=O)cc3n2)cc1 [Example 35, 4-[(1-benzylpiperidin-4-yl)amino]-2-(4-tert-butylphenyl)-6H,7H-pyrazolo[1,5-a][1,3,5]triazin-7-one] |  | 
128 mg/L (≈ 312 µM) | 128 mg/L (≈ 312 µM) | CC(C)(C)c1ccc(-c2nc(NCCCN3CCOCC3)n3[nH]c(=O)cc3n2)cc1 [Example 41, 2-(4-tert-butylphenyl)-4-{[3-(morpholin-4-yl)propyl]amino}-6H,7H-pyrazolo[1,5-a][1,3,5]triazin-7-one] |  | 
8 mg/L (≈ 19.2 µM) | 8 mg/L (≈ 19.2 µM) | CC(C)(C)c1ccc(-c2nc(NCCCNc3ccccc3)n3[nH]c(=O)cc3n2)cc1 [Example 43, 2-(4-tert-butylphenyl)-4-{[3-(phenylamino)propyl]amino}-6H,7H-pyrazolo[1,5-a][1,3,5]triazin-7-one] |  | 
> 32 mg/L | 32 mg/L (≈ 103 µM) | CN(C)c1nc(-c2ccc(C(C)(C)C)cc2)nc2cc(=O)[nH]n12 [Example 32, 2-(4-tert-butylphenyl)-4-(dimethylamino)-6H,7H-pyrazolo[1,5-a][1,3,5]triazin-7-one] |  | 
128 mg/L (≈ 277 µM) | > 128 mg/L | CC(C)(C)c1ccc(-c2nc(NC3CCN(C(=O)c4nnc[nH]4)CC3)n3[nH]c(=O)cc3n2)cc1 [Example 64, 2-(4-tert-butylphenyl)-4-{[11-(4H-1,2,4-triazole-3-carbonyl)piperidin-4-yl]amino}-6H,7H-pyrazolo[1,5-a][1,3,5]triazin-7-one] |  | 
32 mg/L (≈ 75.7 µM) | 32 mg/L (≈ 75.7 µM) | CC(C)(C)c1ccc(-c2nc(NCCCNC3CCCCC3)n3[nH]c(=O)cc3n2)cc1 [Example 39, 2-(4-tert-butylphenyl)-4-{[3-(cyclohexylamino)propyl]amino}-6H,7H-pyrazolo[1,5-a][1,3,5]triazin-7-one] |  | 
32 mg/L (≈ 77.2 µM) | > 32 mg/L | Cc1ccc(-c2nc(NC3CCN(Cc4ccccc4)CC3)n3[nH]c(=O)cc3n2)cc1 [Example 69, 4-[(1-benzylpiperidin-4-yl)amino]-2-(4-methylphenyl)-6H,7H-pyrazolo[1,5-a][1,3,5]triazin-7-one] |  | 
8 mg/L (≈ 16.5 µM) | 8 mg/L (≈ 16.5 µM) | Cc1cc(OCCCNc2nc(-c3ccc(C(C)(C)C)cc3)nc3c(F)c(=O)[nH]n23)ccc1Cl [Example 71, 2-(4-tert-butylphenyl)-4-{[3-(4-chloro-3-methylphenoxy)propyl]amino}-8-fluoro-6H,7H-pyrazolo[1,5-a][1,3,5]triazin-7-one] |  | 
4 mg/L (≈ 8.39 µM) | 8 mg/L (≈ 16.8 µM) | Cc1cc(NCC2CN(c3nc(-c4ccc(C(C)(C)C)cc4)nc4cc(=O)[nH]n34)C2)ccc1Cl [Example 57, 2-(4-tert-butylphenyl)-4-(3-{[(4-chloro-3-methylphenyl)amino]methyl}azetidin-1-yl)-6H,7H-pyrazolo[1,5-a][1,3,5]triazin-7-one] |  | 
128 mg/L (≈ 301 µM) | 128 mg/L (≈ 301 µM) | CC(C)(C)c1ccc(-c2nc(NCCCN3CCC(O)CC3)n3[nH]c(=O)cc3n2)cc1 [Example 40, 2-(4-tert-butylphenyl)-4-{[3-(4-hydroxypiperidin-1-yl)propyl]amino}-6H,7H-pyrazolo[1,5-a][1,3,5]triazin-7-one] |  | 
4 mg/L (≈ 9.96 µM) | 4 mg/L (≈ 9.96 µM) | CC(C)(C)c1ccc(-c2nc(NCCCc3ccccc3)n3[nH]c(=O)cc3n2)cc1 [Example 23, 2-(4-tert-butylphenyl)-4-[(3-phenylpropyl)amino]-6H,7H-pyrazolo[1,5-a][1,3,5]triazin-7-one] |  | 
8 mg/L (≈ 19.2 µM) | 8 mg/L (≈ 19.2 µM) | CC(C)(C)c1ccc(-c2nc(NCCCOc3ccccc3)n3[nH]c(=O)cc3n2)cc1 [Example 33, 2-(4-tert-butylphenyl)-4-[(3-phenoxypropyl)amino]-6H,7H-pyrazolo[1,5-a][1,3,5]triazin-7-one] |  | 
4 mg/L (≈ 8.33 µM) | 4 mg/L (≈ 8.33 µM) | Cc1cc(OCCC(C)Nc2nc(-c3ccc(C(C)(C)C)cc3)nc3cc(=O)[nH]n23)ccc1Cl (centres unmarked) [Example 65, 2-(4-tert-butylphenyl)-4-{[4-(4-chloro-3-methylphenoxy)butan-2-yl]amino}-6H,7H-pyrazolo[1,5-a][1,3,5]triazin-7-one] |  | 
64 mg/L (≈ 145 µM) | > 128 mg/L | CC(C)(C)c1ccc(-c2nc(NCCCN3Cc4ccccc4C3)n3[nH]c(=O)cc3n2)cc1 [Example 44, 2-(4-tert-butylphenyl)-4-{[3-(2,3-dihydro-1H-isoindol-2-yl)propyl]amino}-6H,7H-pyrazolo[1,5-a][1,3,5]triazin-7-one] |  | 
16 mg/L (≈ 45.3 µM) | 16 mg/L (≈ 45.3 µM) | CCCCN(C)c1nc(-c2ccc(C(C)(C)C)cc2)nc2cc(=O)[nH]n12 [Example 34, 4-[butyl(methyl)amino]-2-(4-tert-butylphenyl)-6H,7H-pyrazolo[1,5-a][1,3,5]triazin-7-one] |  | 
